Experimental findings from US8387699B2, “Green coal bed methane fracturing fluid compositions, methods of preparation and methods of use” (Calfrac Well Services Ltd., priority 2008, dated 2013) are described below.

Some results are limits rather than exact numbers.

In this data set the test system is Vibrio fischeri NRRL-B-11177. The data set is described as follows: Microtox™ toxicity test (light emission of bioluminescent bacterium). Type of data set: cell-based. The settings on record: constituent at the loading given; for EC50 Result (%): normally 50% light reduction over 15 minute at 15°C. How it is done: Under the Microtox™ protocols, the viability of known bacterial cultures is measured within a sample to produce a numeric result as well as a “pass/fail” indication.
The test is performed by rehydrating freeze dried cultures of the organism, supplied as the Microtox™ reagent and determining the initial light output of homogenized bacterial suspensions. Aliquots of osmotically adjusted sample and sample dilutions are added to the bacterial suspension, and light measurements are made at specific intervals (generally at 5 or 15 minutes) after exposure to test samples. The diluent control (blank) is used to correct time-dependant change in light output.
The Microtox™ test endpoint is measured as the effective or inhibitory concentration of a test sample that reduces light emission by a specific amount under defined conditions of time and temperature. Normally, this is expressed as an ECSO(15) or ICSO(15) which is the effective concentration or inhibitory concentration of a sample that reduces light emission of the test organism by 50% over a 15 minute test period at 15°C.
The EC50 or IC50 is calculated by log linear plotting of Concentration (C) vs percent Light Decrease (percent A), or more precisely by plotting Gamma Q (which is the corrected ratio of the amount of light lost to the amount of light remaining) versus Concentration on a log-log graph. Either a hand calculator or computer program data reduction systems may be used to calculate Gamma and the corresponding EC50 or ICSO values.
Thus, the desired loading for a fracturing fluid is determined and the viscosifier diluted to that loading in water and subjected to standardized Microtox™ testing.

As to `O=CO` [0.002 wt % formic acid, formic acid], the Pass/Fail result is “Pass (>75% EC50 result is required for pass)” and the “EC50 Result (%)” value is reported as greater than 91%.

In the case of `[Cl-].[K+]` [4 wt % KCl water, KCl], the “EC50 Result (%)” value was greater than 91%.

In the case of `C[Si]1(C)O[Si](C)(C)O[Si](C)(C)O[Si](C)(C)O1` [octamethylcyclotetrasiloxane], the Pass/Fail result is listed as “Pass (>75% EC50 result is required for pass)” and the “EC50 Result (%)” value was 82%.

In the case of “hemicellulase enzyme [hemicellulase enzyme (0.02 wt %)]”, the “EC50 Result (%)” value is recorded as greater than 91%.
